Tests used:
A2780 [1] = experiment: Compound was evaluated for cytotoxicity against A2780 cell lines.; type: functional, cell-based; conditions: Homo sapiens
WEHI = experiment: Compound was evaluated for cytotoxicity against WEHI cell lines.; type: functional, cell-based; conditions: Mus musculus
MCF7 = experiment: Compound was evaluated for cytotoxicity against MCF-7 cell lines.; type: functional, cell-based; conditions: Homo sapiens
[2] = Compound was evaluated for induced thermal stabilization for compound: DNA ratio of 1:5 at 0.1 to 0.2 degrees Centigrade.; parameters: unit: °C
HOP-92 = experiment: Compound was evaluated for cytotoxicity against HOP-92 cell lines.; type: functional, cell-based; conditions: Homo sapiens
A2780 [3] = experiment: Compound was evaluated for cytotoxicity against A2780 cis cell lines.; type: functional, cell-based; conditions: Homo sapiens
MOLT-4 = experiment: Compound was evaluated for cytotoxicity against MOLT-4 cell lines.; type: functional, cell-based; conditions: Homo sapiens
SK-OV-3 = experiment: Compound was evaluated for cytotoxicity against SCOV-3 cell lines.; type: functional, cell-based; conditions: Homo sapiens
[4] = Compound was evaluated for induced thermal stabilization for compound: DNA ratio of 1:10 at 0.1 to 0.2 degrees Centigrade.; parameters: unit: °C
SW-620 = experiment: Compound was evaluated for cytotoxicity against SW-620 cell lines.; type: functional, cell-based; conditions: Homo sapiens
MAC15A = experiment: Compound was evaluated for cytotoxicity against Mac15A cell lines.; type: functional, cell-based; conditions: Mus musculus

| SMILES | IC50 (A2780 [1]) [nM] | IC50 (WEHI) [nM] | IC50 (MCF7) [µM] | Change in Tm [2] | IC50 (HOP-92) [µM] | IC50 (A2780 [3]) [nM] | IC50 (MOLT-4) [nM] | IC50 (SK-OV-3) [µM] | Change in Tm [4] | IC50 (SW-620) [nM] | IC50 (MAC15A) [nM] |
| --- | --- | --- | --- | --- | --- | --- | --- | --- | --- | --- | --- |
| CCOC(=O)c1cn2c(ccc3sc4ccccc4c(=O)c32)n1 | > 100000 | > 100000 | 84.4 | 1.2 | 87.5 | > 100000 | > 100000 | > 100 | 0.5 | > 100000 |  |
| O=C(NCCN1CCCC1)c1cn2c(ccc3sc4ccccc4c(=O)c32)n1 | 4500 |  | 0.61 | 6.5 | 15.9 | 6000 | 470 | 29 | 3.4 | 1520 |  |
| O=C(NCCN1CCOCC1)c1cn2c(ccc3sc4ccccc4c(=O)c32)n1 | 5800 |  | 7.08 | 2.9 | 12.8 | 7600 | 3300 | 23 | 1.6 | 4850 |  |
| CCN(CC)CCCNC(=O)c1cn2c(ccc3sc4ccccc4c(=O)c32)n1 | 430 |  |  | 12.4 |  | 480 |  | 1.65 | 7 |  |  |
| O=C1c2c(O)ccc(O)c2C(=O)c2c(NCCNCCO)ccc(NCCNCCO)c21 [MITOXANTRONE] | 5500 |  |  | > 25 |  |  |  |  | 15 |  |  |
| O=C(c1cn2c(ccc3sc4ccccc4c(=O)c32)n1)N1CCN(CCO)CC1 | 740 |  |  | 3.5 |  | 1800 |  | 13.5 | 1.9 |  | 420 |
| CN(C)CCCNC(=O)c1cn2c(ccc3sc4ccccc4c(=O)c32)n1 | 540 | 300 | 11.2 | 10.4 | 0.36 | 760 | 420 | 2.15 | 5.7 | 1440 | 500 |
| O=C(NCCN1CCCCC1)c1cn2c(ccc3sc4ccccc4c(=O)c32)n1 | 560 |  |  | 10.5 |  | 650 |  | 7.7 | 6 |  | 180 |
| Nc1ccc2cc3ccc(N)cc3nc2c1 [PROFLAVINE] |  |  |  | 11.5 |  |  |  |  | 6.3 |  |  |
